The results in this text go back to article PMC6535779, “A Specific, Glycomimetic Langerin Ligand for Human Langerhans Cell Targeting” (ACS Central Science, 2019).

For the assay, the target named is T1, DC-SIGN CRD (Homo sapiens, UniProt Q9NNX6).
T1 construct: with the DC-SIGN CRD were performed at a receptor concentration of 50 μM; made in house
T1 sequence (Q9NNX6 263-378 limits assumed): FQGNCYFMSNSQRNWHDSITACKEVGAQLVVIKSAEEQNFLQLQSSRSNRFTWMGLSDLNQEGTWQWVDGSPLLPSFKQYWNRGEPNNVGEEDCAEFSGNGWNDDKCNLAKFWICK
Nature of the assay: 19F R2-filtered NMR reporter displacement assay with DC-SIGN. In kind it is binding. The following applies: for Ki: 19F R2-filtered NMR, DC-SIGN CRD, pH 7.0, 25 °C; for specificity: Table 1, Langerin against DC-SIGN. An excerpt:
Figure S7. 19F R2-filtered NMR assay development with DC-SIGN. […]
substantial line broadeni ng. This phenomenon was utilized to develop the 19F R2-filtered NMR reporter displacement assay following the procedure previously published for Langerin 3. The spectrum in absence of DC -SIGN is processed with an exponential apodization function at 1.8 Hz. b. The interaction between 24 and DC-SIGN was quantified via the transversal relaxation rate R2,obs using the CPMG pulse sequence4-5. Representative decay curves in the presence of DC-SIGN are shown. c. The Ca2+-dependency of the interaction was validated via addition of EDTA. The R2,obs value in absence of DC-SIGN was determined from four independent experiments. The standard error for the experiments in presence of DC-SIGN and EDTA is derived directly from the fitting procedure. d. Relaxation dispersion experiments for 24 in presence of DC-SIGN indicate at negligible exchange contribution R2,ex at a νCPMG value of 500 Hz. In contrast to Langerin, a considerable exchange contribution is observed a lower νCPMG values. e. A representative binding isotherm for the affinity determination for 24 is shown. The KD value was determined from three independent titrations. The obtained K D and additional parameters from the fitting procedure are given in Tab le S3.
(1 picture or pasted object on this page, not shown here)
Receptor Expression and Purification
General remarks. Codon-optimized genes for the expression of Langerin and DC-SIGN in E. coli were purchased from GenScript and Life Technologies, respectively. All growth media or chemicals used for receptor expression and purification were purchased from Carl Roth if not stated otherwise. […]
Langerin and DC-SIGN carbohydrate recognition domain. Expression and purification were conducted as previously published14. Briefly, the monomeric 15N-labeled Langerin and DC-SIGN carbohydrate recognition domains (CRDs) were expressed insolubly in E. coli BL21* (DE3) (Invitrogen). Following enzymatic cell lysis, inclusion bodies were harvested and subsequently solubilized. The sample was centrifuged and the Langerin and DC-SIGN CRDs were refolded overnight via rapid dilution. Next, the sample was dialyzed overnight, centrifuged and purified via StrepTactin affinity chromatography (Iba). After an additional dialysis step overnight, the sample was centrifuged and the buffer was exchanged to 25 mM HEPES with 150 mM NaCl at pH 7.0 using 7 kDa size-exclusion desalting columns (Thermo Scientific) for 19F R2-filtered and 15N HSQC NMR experiments. The concentration of Langerin and DC -SIGN CRDs was determined via UV spectroscopy (A280, 0.1% = 3.19 and A280, 0.1% = 2.98). Purity and monodispersity of Langerin and DC - SIGN CRD samples were analyzed via SDS PAGE and DLS.
General remarks. 19F R2-filtered NMR experiments were conducted on a PremiumCompact 600 MHz spectrometer (Agilent). Spectra were processed in MestReNova and data analysis was performed with OriginPro 13, 15. Experiments with the Langerin ECD were performed at a receptor concentration of 50 μM in 25 mM Tris with 10% D2O, 150 mM NaCl and 5 mM CaCl2 at pH 7.8 and 25° C. Experiments […]
with the DC-SIGN CRD were performed at a receptor concentration of 50 μM in 25 mM HEPES with 10% D2O, 150 mM NaCl and 5 mM CaCl2 at pH 7.0 and 25°C. TFA served as an internal reference at a concentration of 50 μM. Apparent relaxation rates R2,obs for the reporter ligand were determined using the CPMG pulse sequence as previously published3-5.
Assay development for DC-SIGN. The 19F R2-filtered NMR reporter displacement assay for DC-SIGN was developed following the procedure previously published for Langerin3. Briefly, the KD value and the relaxation rate in bound state R2,b were determined at five concentrations [L]T of reporter ligand 24 in three independent titration experiments. Samples were prepared via serial dilution. The addition of 10 mM EDTA served to validate the Ca2+-dependency of the interaction between DC-SIGN and the reporter ligand. […]

Molecule `Cc1ccc(S(=O)(=O)N[C@H]2C(O)O[C@H](CO)[C@@H](O)[C@@H]2O)cc1` (some centres unmarked) [compound 2] registered an inhibition constant (Ki) of 17 ± 1 mM. For the setting “from KI values”, this molecule showed a specificity of 53.

With `CC(=O)NCCO[C@@H]1O[C@H](CO)[C@@H](O)[C@H](O)[C@H]1NS(=O)(=O)c1ccc(C)cc1` [compound 16], the Ki worked out at 15 ± 3 mM. Besides, under “from KI values”, the specificity is 63 and the “specificity for Langerin against DC-SIGN” value is given as 63 fold.

The molecule `CC(=O)NCCO[C@H]1O[C@H](CO)[C@@H](O)[C@H](O)[C@@H]1O` [compound 21] returned a Ki of 2.7 ± 0.3 mM. Further, for the setting “from KI values”, the specificity was 0.27 and the “specificity for DC-SIGN over Langerin” value came out at 3.7 fold.
